Molecular target: T1, PIKfyve (Homo sapiens, UniProt Q9Y2I7)
T1 construct: endogenous in cells; host or cells: VCaP
Assay: Degradation of PIKfyve proteins in VCaP tumor cells (24 h, Western blot)
Type: cell-based
Conditions: 37° C., compared with DMSO control, WB, read-out: DC50 (concentration that achieves 50% degradation activity)
Outline: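 VCaP cells (5×10^6 cells/ml) treated with a range of compound concentrations at 37° C for 24 h, then lysed in SDS buffer. PIKfyve level measured by Western blot with GAPDH as loading control and ECL detection. DC50 is the concentration giving 50% degradation relative to DMSO control.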

T1 sequence (Q9Y2I7 whole entry): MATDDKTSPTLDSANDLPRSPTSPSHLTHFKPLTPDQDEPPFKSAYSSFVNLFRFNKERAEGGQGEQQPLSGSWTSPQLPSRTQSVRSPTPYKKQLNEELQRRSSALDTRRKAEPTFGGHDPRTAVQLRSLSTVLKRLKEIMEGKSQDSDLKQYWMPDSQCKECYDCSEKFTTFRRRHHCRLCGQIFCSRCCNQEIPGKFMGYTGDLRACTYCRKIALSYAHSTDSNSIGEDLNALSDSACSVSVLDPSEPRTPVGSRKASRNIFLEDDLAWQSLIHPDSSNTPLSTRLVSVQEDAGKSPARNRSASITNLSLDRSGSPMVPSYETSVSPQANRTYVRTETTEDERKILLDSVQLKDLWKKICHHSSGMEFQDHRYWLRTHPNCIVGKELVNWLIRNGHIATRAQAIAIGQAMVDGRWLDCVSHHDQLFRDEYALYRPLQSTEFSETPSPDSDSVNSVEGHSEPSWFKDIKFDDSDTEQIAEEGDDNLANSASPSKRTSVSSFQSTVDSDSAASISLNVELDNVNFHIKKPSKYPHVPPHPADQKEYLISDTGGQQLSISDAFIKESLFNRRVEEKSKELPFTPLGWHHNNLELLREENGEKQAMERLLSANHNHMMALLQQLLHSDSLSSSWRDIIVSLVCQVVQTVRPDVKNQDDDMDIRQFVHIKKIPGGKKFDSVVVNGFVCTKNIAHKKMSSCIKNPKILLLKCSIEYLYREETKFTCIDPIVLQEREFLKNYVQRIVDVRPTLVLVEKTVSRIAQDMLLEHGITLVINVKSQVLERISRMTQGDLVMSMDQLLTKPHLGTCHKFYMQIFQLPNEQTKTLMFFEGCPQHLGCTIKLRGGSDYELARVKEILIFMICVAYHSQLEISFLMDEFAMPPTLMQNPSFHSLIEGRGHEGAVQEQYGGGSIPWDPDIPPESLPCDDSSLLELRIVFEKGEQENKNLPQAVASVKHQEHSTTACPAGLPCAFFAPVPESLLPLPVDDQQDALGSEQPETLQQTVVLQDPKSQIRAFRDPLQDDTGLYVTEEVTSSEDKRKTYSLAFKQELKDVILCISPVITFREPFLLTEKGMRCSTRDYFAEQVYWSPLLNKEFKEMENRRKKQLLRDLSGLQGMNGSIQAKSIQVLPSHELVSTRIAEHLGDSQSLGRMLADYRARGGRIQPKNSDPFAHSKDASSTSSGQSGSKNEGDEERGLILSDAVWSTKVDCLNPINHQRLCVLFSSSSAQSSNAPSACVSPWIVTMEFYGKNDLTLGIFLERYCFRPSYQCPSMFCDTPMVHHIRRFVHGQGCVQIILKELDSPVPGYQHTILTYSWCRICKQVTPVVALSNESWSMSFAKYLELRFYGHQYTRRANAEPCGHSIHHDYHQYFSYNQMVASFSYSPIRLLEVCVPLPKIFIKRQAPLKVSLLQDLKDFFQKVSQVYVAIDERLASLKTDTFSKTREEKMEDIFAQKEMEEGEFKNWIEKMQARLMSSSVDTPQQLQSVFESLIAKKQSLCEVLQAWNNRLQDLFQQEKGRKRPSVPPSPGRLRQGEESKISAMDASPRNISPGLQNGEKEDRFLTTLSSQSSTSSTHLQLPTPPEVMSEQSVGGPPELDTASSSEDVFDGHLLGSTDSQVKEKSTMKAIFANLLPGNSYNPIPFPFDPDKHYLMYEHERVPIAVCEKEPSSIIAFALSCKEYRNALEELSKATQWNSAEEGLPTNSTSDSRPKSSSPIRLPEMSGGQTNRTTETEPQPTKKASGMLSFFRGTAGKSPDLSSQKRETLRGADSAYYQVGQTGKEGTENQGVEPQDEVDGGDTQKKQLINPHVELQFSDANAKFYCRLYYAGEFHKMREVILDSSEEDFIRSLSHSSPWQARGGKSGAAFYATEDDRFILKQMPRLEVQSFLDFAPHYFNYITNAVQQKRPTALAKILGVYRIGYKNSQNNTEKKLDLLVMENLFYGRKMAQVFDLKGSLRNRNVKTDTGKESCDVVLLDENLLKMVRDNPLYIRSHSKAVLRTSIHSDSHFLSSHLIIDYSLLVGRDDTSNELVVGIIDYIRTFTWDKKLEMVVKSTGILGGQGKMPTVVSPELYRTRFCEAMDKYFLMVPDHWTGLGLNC

DC50, 0.1 to 10 µM:
Cc1cccc(-c2ccn(-c3cc(N4CCOCC4)nc(OCCc4ccc(C#CC5CCN(c6cc7c(cc6F)C(=O)N(C6CCC(=O)NC6=O)C7=O)CC5)cc4)n3)n2)c1 (stereo not shown) [Example 90, 2-(2,6-Dioxopiperidin-3-yl)-5-fluoro-6-(4-((4-(2-((4-morpholino-6-(3-(m-tolyl)-1H-pyrazol-1-yl)pyrimidin-2-yl)oxy)ethyl)phenyl)ethynyl)piperidin-1-yl)isoindoline-1,3-dione]
Cc1cccc(-c2ccn(-c3cc(N4CCOCC4)nc(OCCc4ccc(N5CCN(CC6CCN(c7cc8c(cc7F)C(=O)N(C7CCC(=O)NC7=O)C8=O)CC6)CC5)cc4)n3)n2)c1 (stereo not shown) [Example 91, 2-(2,6-Dioxopiperidin-3-yl)-5-fluoro-6-(4-((4-(4-(2-((4-morpholino-6-(3-(m-tolyl)-1H-pyrazol-1-yl)pyrimidin-2-yl)oxy)ethyl)phenyl)piperazin-1-yl)methyl)piperidin-1-yl)isoindoline-1,3-dione]
Cc1cccc(-c2ccn(-c3cc(N4CCOCC4)nc(OC4CCN(c5ccc(NC(=O)NC6CCN(c7cc8c(cc7F)C(=O)N(C7CCC(=O)NC7=O)C8=O)CC6)cc5)CC4)n3)n2)c1 (stereo not shown) [Example 92, 1-(1-(2-(2,6-Dioxopiperidin-3-yl)-6-fluoro-1,3-dioxoisoindolin-5-yl)piperidin-4-yl)-3-(4-(4-((4-morpholino-6-(3-(m-tolyl)-1H-pyrazol-1-yl)pyrimidin-2-yl)oxy)piperidin-1-yl)phenyl)urea]
Cc1cccc(-c2ccn(-c3cc(N4CCOCC4)nc(OC4CCN(c5ccc(NC(=O)NC6CN(c7cc8c(cc7F)C(=O)N(C7CCC(=O)NC7=O)C8=O)C6)cc5)CC4)n3)n2)c1 (stereo not shown) [Example 93, 1-(1-(2-(2,6-Dioxopiperidin-3-yl)-6-fluoro-1,3-dioxoisoindolin-5-yl)azetidin-3-yl)-3-(4-(4-((4-morpholino-6-(3-(m-tolyl)-1H-pyrazol-1-yl)pyrimidin-2-yl)oxy)piperidin-1-yl)phenyl)urea]
Cc1cccc(-c2ccn(-c3cc(N4CCOCC4)nc(Oc4ccc(N5CCC(N6CCN(c7cc8c(cc7F)C(=O)N(C7CCC(=O)NC7=O)C8=O)CC6)CC5)cc4)n3)n2)c1 (stereo not shown) [Example 94, 2-(2,6-Dioxopiperidin-3-yl)-5-fluoro-6-(4-(1-(4-((4-morpholino-6-(3-(m-tolyl)-1H-pyrazol-1-yl)pyrimidin-2-yl)oxy)phenyl)piperidin-4-yl)piperazin-1-yl)isoindoline-1,3-dione]
Cc1cccc(-c2ccn(-c3cc(N4CCOCC4)nc(OC4CCN(c5ccc(CN6CCN(c7cc8c(cc7F)C(=O)N(C7CCC(=O)NC7=O)C8=O)CC6)cc5)CC4)n3)n2)c1 (stereo not shown) [Example 95, 2-(2,6-Dioxopiperidin-3-yl)-5-fluoro-6-(4-(4-(4-((4-morpholino-6-(3-(m-tolyl)-1H-pyrazol-1-yl)pyrimidin-2-yl)oxy)piperidin-1-yl)benzyl)piperazin-1-yl)isoindoline-1,3-dione]
Cc1cccc(-c2ccn(-c3cc(N4CCOCC4)nc(Oc4ccc(N5CCN(CC6CCN(c7cc8c(cc7F)C(=O)N(C7CCC(=O)NC7=O)C8=O)CC6)CC5)cc4)n3)n2)c1 (stereo not shown) [Example 96, 2-(2,6-Dioxopiperidin-3-yl)-5-fluoro-6-(4-((4-(4-((4-morpholino-6-(3-(m-tolyl)-1H-pyrazol-1-yl)pyrimidin-2-yl)oxy)phenyl)piperazin-1-yl)methyl)piperidin-1-yl)isoindoline-1,3-dione]

Reference: patent publication US20260317299A1, “PIKFYVE PROTEIN KINASE DEGRADATION AGENT AND USE THEREOF” (Shanghai Institute of Organic Chemistry, Chinese Academy of …, priority 2023, published 2026)
